Values quoted from earlier work in US10189839B2, “Tricyclic imidazole compounds as inhibitors of tryptophan hydroxylase” (ACTELION PHARMACEUTICALS LTD, priority 2013, dated 2019).

What was measured:
5HT [1] = settings: 200 mg/kg i.p. qid for 3 days; cited from earlier work
cholangiocarcinoma = settings: xenograft model of cholangiocarcinoma; cited from earlier work
5HT [2] = settings: in vivo; cited from earlier work
[3] = tested on: blood 5HT and urinary 5HIAA; settings: phase IIA study, qid; cited from earlier work

| Structure (SMILES) | 5HT in the brain (5HT [1]) [% original] | 5HT in the gut (5HT [1]) [% original] | tumor volume (cholangiocarcinoma) | 5HT in the colon (5HT [2]) | 5HT in the jejunum (5HT [2]) | brain 5HT (5HT [2]) | blood 5HT [3] | urinary 5HIAA reduction [3] |
| --- | --- | --- | --- | --- | --- | --- | --- | --- |
| N[C@@H](Cc1ccc(Cl)cc1)C(=O)O (racemic) [PCA, p-chlorophenylalanine] | ~20 | ~50 | dramatic reduction in tumor volume | – | – | – | – | – |
| COc1cccc(-c2ccc([C@@H](Oc3cc(-c4ccc(C[C@H](N)C(=O)O)cc4)nc(N)n3)C(F)(F)F)cc2)c1 [LX1031, (S)-2-Amino-3-(4-{2-amino-6-[(R)-2,2,2-trifluoro-1-(3′-methoxy-biphenyl-4-yl)-ethoxy]-pyrimidin-4-yl}-phenyl)-propionic acid] | – | – | – | only a minor reduction observed in the colon | lowers 5HT in the jejunum | no effect on brain 5HT | did not affect blood 5HT | up to 30% |
